Measurements published in patent US7163946B2 (Ligand Pharmaceuticals Incorporated, priority 2002, dated 2007).
Where two headings read alike, the source gives them in different places.

Key:
immature rabbits = test: McPhail (Clauberg) rabbit assay of progestational activity; type: in vivo; conditions: Oryctolagus cuniculus; estradiol-primed immature rabbits; glandular changes of the uterus; read-out: potency (MAD in mg/kg), minimum active dose
Experimental: The superiority of the 7,9-difluoro analogue compounds of the present invention was further characterized utilizing the McPhail rabbit model according to the following illustrative Examples. The Clauberg or McPhail assay is a classic assay utilizing rabbits to measure progestational activity. […] In this assay, immature rabbits are treated initially with estradiol, which induces growth in the uterus. This is followed by a progestin, which causes a large change in the glandular content of the uterus. It is this change in the glandular component which is a measure of the progestational activity of a progestin. The measurement of these glandular changes is carried out histologically using stained sections of the uterus. The in vivo comparison between the new 7,9-difluoro compounds and analogues with substitution patterns different from 7,9-difluoro (U.S. Pat. Nos. 5,693,646 and 5,696,127) is tabulated in Tables 7 and 8. The in vivo potency of the progestins is presented as the minimum active dose (MAD).

hPR [1] = molecular target: T1, hPR (Homo sapiens, UniProt P06401); test: hPR cotransfection assay in CV-1 cells, agonist mode; type: cell-based; conditions: CV-1 cells
T1 sequence (P06401 1-933): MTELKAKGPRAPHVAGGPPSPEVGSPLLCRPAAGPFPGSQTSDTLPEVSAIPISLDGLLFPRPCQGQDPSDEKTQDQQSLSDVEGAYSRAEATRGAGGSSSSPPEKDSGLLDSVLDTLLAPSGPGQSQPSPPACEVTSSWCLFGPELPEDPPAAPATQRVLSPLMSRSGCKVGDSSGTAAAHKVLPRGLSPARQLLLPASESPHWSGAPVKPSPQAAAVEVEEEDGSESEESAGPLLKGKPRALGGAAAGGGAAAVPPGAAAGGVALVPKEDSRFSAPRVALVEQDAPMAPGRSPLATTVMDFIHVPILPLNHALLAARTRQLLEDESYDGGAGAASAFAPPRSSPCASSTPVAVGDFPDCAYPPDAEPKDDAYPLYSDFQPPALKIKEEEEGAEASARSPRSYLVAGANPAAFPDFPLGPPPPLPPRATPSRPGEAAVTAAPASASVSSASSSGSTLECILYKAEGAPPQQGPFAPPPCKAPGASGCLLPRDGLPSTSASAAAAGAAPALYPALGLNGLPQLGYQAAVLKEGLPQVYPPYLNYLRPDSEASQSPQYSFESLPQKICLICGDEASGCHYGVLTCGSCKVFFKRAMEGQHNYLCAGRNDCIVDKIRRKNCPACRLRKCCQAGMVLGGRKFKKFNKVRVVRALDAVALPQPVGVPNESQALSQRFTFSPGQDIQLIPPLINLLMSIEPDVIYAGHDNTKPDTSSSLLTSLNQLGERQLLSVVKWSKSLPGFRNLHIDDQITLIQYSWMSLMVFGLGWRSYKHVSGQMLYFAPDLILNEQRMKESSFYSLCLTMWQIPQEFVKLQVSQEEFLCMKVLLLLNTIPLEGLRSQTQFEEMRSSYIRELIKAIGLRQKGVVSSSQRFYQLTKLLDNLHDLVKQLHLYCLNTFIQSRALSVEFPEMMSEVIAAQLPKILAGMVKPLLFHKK
Experimental: (§1) Antagonist efficacy was determined as a function (%) of maximal inhibition of a reference agonist at EC50 concentration. All the cotransfection experiments were carried out in 96-well plates by automation (Beckman Biomomek automated workstation).

[2] = tested on: ovariectomized female rats; test: Multi-endpoint adult rat model, uterus/breast tissue-selectivity; type: in vivo; conditions: ratio of relative efficacy to MPA in uterus verse in breast tissue at the same highest dose tested; estrone-treated ovariectomized rats, three days
Source text: In this assay, advantage is taken of the fact that in the uterus, estrogens induce a proliferation and increase in the epithelial cell height and uterine wet weight, which can be antagonized by progestins. In the breast, estrogens induce a proliferation of the ductal network while progestins stimulate the growth of the lobular-alveolar end buds, which grow from the distal end of the ducts. […] Proliferating cells or inhibition of proliferating cells were quantitated either by measurements of cell height in sectioned and stained tissue samples or, in the case of the breast, immuno-histochemically labeled Brdu incorporated nuclei.

hPR [3] = molecular target: T2, hPR (Homo sapiens, UniProt P06401); test: T47D alkaline phosphatase assay, agonist mode; type: cell-based; conditions: T47D human breast cancer cells
T2 sequence (P06401 679-933 limits assumed): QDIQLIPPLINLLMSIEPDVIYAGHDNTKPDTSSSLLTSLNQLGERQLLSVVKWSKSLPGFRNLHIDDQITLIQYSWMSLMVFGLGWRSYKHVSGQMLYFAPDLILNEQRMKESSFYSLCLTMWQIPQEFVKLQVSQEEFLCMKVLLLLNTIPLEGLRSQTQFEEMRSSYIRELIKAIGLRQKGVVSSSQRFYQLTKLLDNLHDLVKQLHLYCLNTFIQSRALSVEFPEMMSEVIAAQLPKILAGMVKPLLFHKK
Source text: The potential tissue-selectivities of the selected analogues were examined by using the T47D alkaline phosphatase assay that was developed from human breast cancer cells with endogenous PRs.

hPR-A = molecular target: T3, hPR-A (Homo sapiens, UniProt P06401); test: Receptor competitive binding assay; conditions: read-out: PR binding Ki
T3 sequence (P06401 1-769 isoform P06401-2): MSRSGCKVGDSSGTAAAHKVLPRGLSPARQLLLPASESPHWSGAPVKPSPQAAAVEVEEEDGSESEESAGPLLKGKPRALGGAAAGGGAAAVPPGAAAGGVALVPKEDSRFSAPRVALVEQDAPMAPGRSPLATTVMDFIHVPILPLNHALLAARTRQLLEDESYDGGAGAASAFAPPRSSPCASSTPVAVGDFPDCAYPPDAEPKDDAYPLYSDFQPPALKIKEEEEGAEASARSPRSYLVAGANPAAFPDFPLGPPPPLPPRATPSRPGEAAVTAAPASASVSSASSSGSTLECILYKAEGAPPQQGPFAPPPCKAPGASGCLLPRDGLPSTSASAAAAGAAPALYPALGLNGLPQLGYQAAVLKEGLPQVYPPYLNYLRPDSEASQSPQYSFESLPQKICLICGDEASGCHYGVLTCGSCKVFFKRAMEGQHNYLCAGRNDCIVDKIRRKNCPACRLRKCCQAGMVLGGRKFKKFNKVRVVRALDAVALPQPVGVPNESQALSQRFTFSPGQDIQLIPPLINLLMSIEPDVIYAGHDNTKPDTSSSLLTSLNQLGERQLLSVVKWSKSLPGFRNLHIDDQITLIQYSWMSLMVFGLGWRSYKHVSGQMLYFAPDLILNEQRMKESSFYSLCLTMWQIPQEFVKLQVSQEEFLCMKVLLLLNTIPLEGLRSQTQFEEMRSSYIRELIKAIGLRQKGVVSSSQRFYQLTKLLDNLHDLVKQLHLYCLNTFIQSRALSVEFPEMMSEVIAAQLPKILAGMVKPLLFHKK

hPR [4] = molecular target: T1, hPR; test: hPR cotransfection assay in CV-1 cells, antagonist mode; type: cell-based; conditions: CV-1 cells
Experimental: as §1

hPR [5] = molecular target: T1, hPR
[6] = footnote a: EC50 data from U.S. Pat. Nos. 5693646/5693647/5696127; read-out: hPR agonist potencies (EC50 in nM) in the cotransfection assay; cited from earlier work
[7] = footnote b: EC50 data from J. Med. Chem. 41 (1998), 291 and 303; read-out: hPR agonist potencies (EC50 in nM) in the cotransfection assay; cited from earlier work

Compound | uterus/breast tissue-selectivity [2] | EC50 (hPR [5]; [6]) | EC50 (hPR [5]; [7]) | other results
CC1=CC(C)(C)Nc2ccc3c(c21)C(c1ccc(Cl)c(C)c1)Oc1c(F)cc(F)cc1-3 (single isomer, unassigned; (-)) [Compound 38, (−)-7,9-difluoro-5-(4-chloro-3-methylphenyl)-1,2-dihydro-2,2,4-trimethyl-5H-chromeno[3,4-f]quinoline] | 2.8 | – | – | minimal effective dose (immature rabbits): 0.25 mg/kg; EC50 (hPR [1]; read-out: hPR Agonist CV-1 Cells EC50): 1.2 nM; hPR Agonist CV-1 Cells Eff. (%) (hPR [1]; relative to maximal response of progesterone as 100%): 110%; EC50 (hPR [3]): 6.2 nM; hPR Agonist T47D cells Eff. (%) (hPR [3]): 54%; Ki (hPR-A): 2 nM; IC50 (hPR [4]): > 10000 nM; hPR Antagonist CV-1 Cells Eff. (%) (hPR [4]; maximal inhibition of reference agonist at EC50 concentration): na (na = not active (i.e. efficacy of <20 and potency of >10,000))
CC1=CC(C)(C)Nc2ccc3c(c21)C(c1cccc(F)c1)Oc1ccccc1-3 (centres unmarked) [Formula I X=H 3-F-Ph] | – | 9 nM | – | –
CC1=CC(C)(C)Nc2ccc3c(c21)C(c1ccccc1)Oc1ccccc1-3 (centres unmarked) [Formula I X=H Ph, reference compound] | 0.78 | 203 nM | – | –
CC1=CC(C)(C)Nc2ccc3c(c21)C(=Cc1ccccc1C)Oc1ccc(F)cc1-3 [Formula II X=9-F 2-Me-Ph, reference compound] | 2.3 | 4 nM | – | minimal effective dose (immature rabbits): 1.2 mg/kg
CC1=CC(C)(C)Nc2ccc3c(c21)C(=Cc1cc(F)ccc1F)Oc1ccccc1-3 [Formula II X=H 2,5-diF-Ph] | – | – | 14.7 nM | –
CC1=CC(C)(C)Nc2ccc3c(c21)C(=Cc1ccccc1Cl)Oc1ccccc1-3 [Formula II X=H 2-Cl-Ph] | – | – | 57.8 nM | –
CC1=CC(C)(C)Nc2ccc3c(c21)C(=Cc1ccccc1F)Oc1ccccc1-3 [Formula II X=H 2-F-Ph] | – | – | 29 nM | –
CC1=CC(C)(C)Nc2ccc3c(c21)C(=Cc1ccccc1C)Oc1ccccc1-3 [Formula II X=H 2-Me-Ph] | – | – | 5.7 nM | –
CC1=CC(C)(C)Nc2ccc3c(c21)C(=Cc1cccc(F)c1)Oc1ccccc1-3 [Formula II X=H 3-F-Ph, reference compound] | 0.69 | – | – | EC50 (hPR [5]; read-out: hPR agonist potencies (EC50 in nM) in the cotransfection assay; footnote b: EC50 data from J. Med. Chem. 41 (1998), 291 and 303; cited from earlier work): 7.6 nM
CC1=CC(C)(C)Nc2ccc3c(c21)C(=Cc1ccc(F)cc1)Oc1ccccc1-3 [Formula II X=H 4-F-Ph] | – | – | 59.5 nM | –
CC1=CC(C)(C)Nc2ccc3c(c21)C(=Cc1ccccc1)Oc1ccccc1-3 [Formula II X=H Phenyl] | – | 33 nM | – | –
